Experimental data reported in patent publication US20040072839A1, “1-Phenylalkylpiperazines” (priority 2002, published 2004).

Legend:
5-HT1A receptors = target: T1, 5-HT1A receptors (Rattus norvegicus, UniProt P19327); assay: Inhibition of stereotypy (rhythmic forepaw treading) induced by 8-OH-DPAT in rats (post-synaptic antagonism); assay type: in vivo; details: 10 mg/kg p.o.; for % Inhibition of forepaw treading, 1 h: given 1 h before 8-OH-DPAT (1 mg/kg s.c.); for % Inhibition of forepaw treading, 4 h: given 4 h before 8-OH-DPAT (1 mg/kg s.c.)
T1 construct: stereotyped forepaw treading induced in rats by subcutaneous injection of 8-OH-DPAT; from tissue; host or cells: whole animal (male Sprague-Dawley rats), endogenous post-synaptic receptors
T1 sequence (P19327 1-422): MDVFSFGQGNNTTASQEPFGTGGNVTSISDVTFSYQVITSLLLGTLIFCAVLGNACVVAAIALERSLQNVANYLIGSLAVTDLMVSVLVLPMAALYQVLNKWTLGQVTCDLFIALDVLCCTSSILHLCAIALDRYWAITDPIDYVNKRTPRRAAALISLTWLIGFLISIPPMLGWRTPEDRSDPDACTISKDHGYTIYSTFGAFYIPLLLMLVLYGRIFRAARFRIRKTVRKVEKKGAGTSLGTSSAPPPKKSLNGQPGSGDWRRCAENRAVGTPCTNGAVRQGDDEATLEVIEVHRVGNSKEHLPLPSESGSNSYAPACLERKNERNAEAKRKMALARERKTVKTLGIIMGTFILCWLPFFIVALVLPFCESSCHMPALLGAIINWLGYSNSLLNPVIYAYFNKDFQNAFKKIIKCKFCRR
Protocol: The inhibitory effect of 5-HT1A-receptor antagonists on stereotyped forepaw treading induced in rats by subcutaneous injection of 8-OH-DPAT was evaluated by the method of Tricklebank (Tricklebank et al., Eur. J. Pharmacol., 117: 15, 1985) with minor modifications as described below.
Male Sprague-Dawley rats[Crl: CD® (SD) IGS BR] weighing 150-175 g from Charles River Italia were used. The animals were housed with free access to food and water and maintained on a forced 12-hour-light/12-hour-dark cycle at 22-24° C. of temperature. On the day of the experiment, the rats were placed singly in clear plastic containers, 10-15 minutes before administration of the vehicle or compounds to be tested. For evaluation of antagonistic activity after oral administration, the compounds were administered 1 and 4 hours before induction of stereotypy by 8-OH-DPAT (1 mg/kg subcutaneously). Observation sessions last 30 seconds and were begun 3 minutes after 8-OH-DPAT treatment and repeated every 3 minutes over a period of 15 minutes.
The appearance of the symptom induced by postsynaptic stimulation of 5-HT1A receptors was noted, and the intensity was scored using an intensity scale in which: 0=absent, 1=equivocal, 2=present and 3=intense. Behavioural scores for treated rats were accumulated throughout the observation time (5 observation periods) and expressed as mean values of 4 rats/dose. Change in mean values of treated animals in comparison with control (vehicle) group, expressed as per-cent inhibition, were used to quantify the antagonistic activity.

[1] = target: T2, human 5-HT1A-serotonergic receptor (Homo sapiens, UniProt P08908); assay: Radioligand binding to recombinant 5-HT1A receptors ([3H]8-OH-DPAT, HeLa cell membranes); details: 1 nM [3H]8-OH-DPAT; Ki from IC50 by Cheng & Prusoff; read-out: Ki, binding affinity for 5-HT1A receptors
T2 construct: expressed in transfected cells; host or cells: HeLa (human), stably transfected; membrane preparation
T2 sequence (P08908 1-422): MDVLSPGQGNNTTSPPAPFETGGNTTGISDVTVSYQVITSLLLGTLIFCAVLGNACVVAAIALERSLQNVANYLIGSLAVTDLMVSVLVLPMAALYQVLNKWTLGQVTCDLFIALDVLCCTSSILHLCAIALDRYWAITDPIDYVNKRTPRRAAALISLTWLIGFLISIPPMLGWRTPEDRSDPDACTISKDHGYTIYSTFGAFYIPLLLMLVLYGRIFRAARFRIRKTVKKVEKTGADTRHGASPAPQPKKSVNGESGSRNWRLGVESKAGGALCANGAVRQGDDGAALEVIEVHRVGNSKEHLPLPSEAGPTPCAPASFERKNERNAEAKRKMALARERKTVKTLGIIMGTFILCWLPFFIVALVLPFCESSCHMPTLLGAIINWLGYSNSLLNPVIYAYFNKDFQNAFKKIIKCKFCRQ
Protocol: Genomic clone coding for the human 5-HT1A-serotonergic receptor was stably transfected in a human cell line (HeLa). HeLa cells were grown as monolayers in Dulbecco's modified Eagle medium (DMEM), containing 10% foetal bovine serum, gentamycin (0.1 mg/ml) and 5% carbon dioxide, at 37° C. The cells were detached from the growth flask at 95% confluence by a cell scraper and were lysed in cold 5 mM Tris and 5 mM EDTA buffer (pH 7.4). The homogenates were centrifuged at 40000×g×20 minutes and the pellets were resuspended in a small volume of cold 5 mM Tris and 5 mM EDTA buffer (pH 7.4) and immediately frozen and stored at −70° C. until use. On the day of experiment, the cell membranes were resuspended in incubation buffer: 50 mM Tris HCl (pH 7.4), 2.5 mM MgCl2, […] (Fargin et al., Nature 335, 358-360, 1988). The membranes were incubated in a final volume of 1 ml for 30 minutes at 30° C. with 1 nM [^3H]8-OH-DPAT, in the absence or presence of the test compounds. Non-specific binding was determined in the presence of 10 μM 5-HT. Incubation was stopped by addition of cold Tris-HC1 buffer and rapid filtration through a 0.2%-polyethyleneimine-pretreated Whatman-GF/B or Schleicher-&-Schuell-GF52 filter.
The affinities of the tested compounds were evaluated as inhibition of specific binding of the radioligand to 5-HT1A receptors (IC50) by using the non-linear curve-fitting program Allfit (De Lean et al., Am. J. Physiol. 235, E97-E102 (1978). The IC50 value was converted to an affinity constant (Ki) by the equation of Cheng & Prusoff (Cheng Y. C., Prusoff W. H., Biochem. Pharmacol. 22, 3099-3108 (1973)).

Structure (SMILES) | % Inhibition of forepaw treading, 1 h (5-HT1A receptors) [%] | % Inhibition of forepaw treading, 4 h (5-HT1A receptors) [%] | Ki [1] [nM]
CC#CC(O)C(CCN1CCN(c2cccc3c2OCCO3)CC1)c1ccccc1 (centres unmarked) [Example 31, 1-[5-(2,3-Dihydro-1,4-benzodioxinyl)]-4-(4-hydroxy-3-phenylhept-5-ynyl)piperazine] | 60 | 18 | 2.71
CCNC(=O)O[C@@H](C1CCCCC1)[C@H](CCN1CCN(c2ccccc2OC)CC1)c1ccccc1F (racemic) [Example 47, (RS,SR) 1-[4-Cyclohexyl-4-ethylaminocarbonyloxy-3-(2-fluorophenyl)butyl]-4-(2-methoxyphenyl)piperazine] | 56 | 58 | 0.85
COc1cc(F)ccc1N1CCN(CCC(c2ccccc2C#N)C(O)C2CCCCC2)CC1 (centres unmarked) [Example 16, 1-[3-(2-Cyanophenyl)-4-cyclohexyl-4-hydroxybutyl]-4-(4-fluoro-2-methoxyphenyl)piperazine] | 40 | 17 | 0.9
N#Cc1ccccc1C(CCN1CCN(c2cccc3c2OCCO3)CC1)C(O)C1CCCCC1 (racemic) [Example 14b, (SR)-1-[3-(2-Cyanophenyl)-4-cyclohexyl-4-hydroxybutyl]-4-[5-(2,3-dihydro-1,4-benzodioxinyl)]piperazine] |  |  | 0.965
COc1ccccc1N1CCN(CC[C@H](c2ccccc2F)[C@@H](OC(N)=O)C2CCCCC2)CC1 (racemic) [Example 48, (RS,SR) 1-[4-Aminocarbonyloxy-4-cyclohexyl-3-(2-fluorophenyl)butyl]-4-(2-methoxyphenyl)piperazine] | 90 | 74 | 0.36
OCC(CCN1CCN(c2cccc3c2OCCO3)CC1)c1ccccc1 (centres unmarked) [Example 37, 1-[5-(2,3-dihydro-1,4-benzodioxinyl)]-4-(4-hydroxy-3-phenylbutyl]piperazine] |  |  | 5.03
O=C(C1CCCCC1)C(CCN1CCN(c2cccc3[nH]ccc23)CC1)c1ccccc1OC(F)(F)F (centres unmarked) [Example 44, 1-[4-Cyclohexyl-3-(2-trifluoromethoxyphenyl)-4-oxobutyl]-4-(4-indolyl)piperazine] |  |  | 1.14
CC(O)C(CCN1CCN(c2cccc3c2OCCO3)CC1)c1ccccc1 (centres unmarked) [Example 30] |  |  | 5.43
C=CC(O)C(CCN1CCN(c2cccc3c2OCCO3)CC1)c1ccccc1 (centres unmarked) [Example 28, 1-[5-(2,3-Dihydro-1,4-benzodioxinyl)]-4-(4-hydroxy-3-phenylhex-5-enyl]piperazine] |  |  | 2.92
